Test results reported in patent US12421254B2, “KRAS modulators and uses thereof” (Quanta Therapeutics, Inc., priority 2023, dated 2025).
Read-outs that look alike come from different tables or passages of the source.

Tests used:
[1] = target: GST-tagged KRAS-G12D (2-169) (Homo sapiens, UniProt P01116, G12D); test: Nucleotide exchange assay (NEA), SOS-mediated, HTRF, KRAS G12D; assay type: biochemical; details: IC50 extracted at 30 min, 20 nM SOScat
Summary of the method: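 Compound preincubated 1 h at RT with 0.25 nM GST-KRAS-G12D (2-169) and anti-GST Tb donor, then 20 nM SOS1cat (564-1049) and 150 nM GTP-DY-647P1 added; pH 7.3 HEPES buffer with MgCl2 and DTT. HTRF monitored at RT; % inhibition versus DMSO and no-SOS blank, 4-parameter IC50 taken at 30 min.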

[2] = target: GST-tagged KRAS-G12V (2-169) (Homo sapiens, UniProt P01116, G12V); test: Nucleotide exchange assay (NEA), SOS-mediated, HTRF, KRAS G12V; assay type: biochemical; details: Table 4; IC50 extracted at 90 min; 80 nM SOS
Chain of GST-tagged KRAS-G12V (2-169) (P01116 2-169 isoform P01116-2 G12V): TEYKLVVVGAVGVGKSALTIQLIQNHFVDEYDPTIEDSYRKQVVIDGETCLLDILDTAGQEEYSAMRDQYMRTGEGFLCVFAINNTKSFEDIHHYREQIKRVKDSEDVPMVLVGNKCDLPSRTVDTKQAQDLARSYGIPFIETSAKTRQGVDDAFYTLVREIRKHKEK
Summary of the method: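 GST-KRAS-G12V (2-169), 0.25 nM, pre-incubated 1 h at RT with compound, then SOS1cat (564-1049) 80 nM and GTP-DY-647P1 150 nM added in HEPES pH 7.3 buffer with MgCl2 and DTT. HTRF via anti-GST Tb cryptate read over 90 min; IC50 from 4-parameter fit at 90 min, blanked to no-SOS reactions.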

[3] = Table 4, read-out: NEA G12D IC50

Chain of GST-tagged KRAS-G12D (2-169) (P01116 2-169 isoform P01116-2 G12D): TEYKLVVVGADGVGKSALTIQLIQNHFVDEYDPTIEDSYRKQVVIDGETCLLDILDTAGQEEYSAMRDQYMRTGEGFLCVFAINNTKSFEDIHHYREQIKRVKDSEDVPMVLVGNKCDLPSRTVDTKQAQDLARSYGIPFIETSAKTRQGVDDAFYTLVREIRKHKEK

SMILES: N#Cc1c(N)sc2c1C1(CN(c3nc(OC[C@@]45CCCN4C[C@H](F)C5)nc(N(CC(N)=O)C4(C#N)CC4)n3)C1)SC2 [Compound 266, 2-[[4-(2-amino-3-cyano-spiro[6H-thieno[3,4-b]thiophene-4,3′-azetidine]-1′-yl)-6-[[(2R,8S)-2-fluoro-1,2,3,5,6,7-hexahydropyrrolizin-8-yl]methoxy]-1,3,5-triazin-2-yl]-(1-cyanocyclopropyl)amino]acetamide]
- IC50 [1, 3]: < 0.01 µM
- IC50 [2]: < 10 nM

SMILES: N#Cc1c(N)sc2c1C1(CC2)CN(c2nc(OC[C@@]34CCCN3C[C@H](F)C4)nc(O[C@@H]3COC[C@@H]3O)n2)C1 (racemic) [Compound 28, 2-amino-1′-[4-[[(2R,8S)-2-fluoro-1,2,3,5,6,7-hexahydropyrrolizin-8-yl]methoxy]-6-[rac-(3R,4S)-4-hydroxytetrahydrofuran-3-yl]oxy-1,3,5-triazin-2-yl]spiro[5,6-dihydrocyclopenta[b]thiophene-4,3′-azetidine]-3-carbonitrile]
- IC50 [1, 3]: 1 to 20 µM
- IC50 [2]: 100 to 1000 nM

SMILES: C[C@H](c1cccnc1N)N(CC(F)F)c1nc(OC[C@@H]2C[C@@H](F)CN2C)nc(N2CC3(C2)SCc2sc(N)c(C#N)c23)n1 [Compound 197, 2′-amino-1-(4-(((R)-1-(2-aminopyridin-3-yl)ethyl)(2,2-difluoroethyl)amino)-6-(((2S,4R)-4-fluoro-1-methylpyrrolidin-2-yl)methoxy)-1,3,5-triazin-2-yl)-6′H-spiro[azetidine-3,4′-thieno[3,4-b]thiophene]-3′-carbonitrile]
- IC50 [1, 3]: < 0.01 µM
- IC50 [2]: < 10 nM

SMILES: N#Cc1c(N)sc2c1C1(CN(c3nc(OCC4(CN5CCOCC5)CC4)nc(N4CCNC[C@@H]4C(F)F)n3)C1)SC2 [Compound 193, (R)-2′-amino-1-(4-(2-(difluoromethyl)piperazin-1-yl)-6-((1-(morpholinomethyl)cyclopropyl)methoxy)-1,3,5-triazin-2-yl)-6′H-spiro[azetidine-3,4′-thieno[3,4-b]thiophene]-3′-carbonitrile]
- IC50 [1, 3]: < 0.01 µM
- IC50 [2]: 10 to 100 nM

SMILES: CN(c1nc(OCC2(CN3CCOCC3)CC2)nc(N2CC3(CCc4sc(N)c(C#N)c43)C2)n1)[C@@H]1COC[C@@H]1O (racemic) [Compound 94, 2-amino-1′-[4-[[rac-(3R,4R)-4-hydroxytetrahydrofuran-3-yl]-methyl-amino]-6-[[1-(morpholinomethyl)cyclopropyl]methoxy]-1,3,5-triazin-2-yl]spiro[5,6-dihydrocyclopenta[b]thiophene-4,3′-azetidine]-3-carbonitrile]
- IC50 [1, 3]: 1 to 20 µM
- IC50 [2]: 100 to 1000 nM

SMILES: CN(Cc1c(O)ccnc1N)c1nc(OC[C@@]23CCCN2C[C@H](F)C3)nc(N2CC3(C2)SCc2sc(N)c(C#N)c23)n1 [Compound 182, 2-amino-1′-[4-[(2-amino-4-hydroxy-3-pyridyl)methyl-methyl-amino]-6-[[(2R,8S)-2-fluoro-1,2,3,5,6,7-hexahydropyrrolizin-8-yl]methoxy]-1,3,5-triazin-2-yl]spiro[6H-thieno[2,3-c]thiophene-4,3′-azetidine]-3-carbonitrile]
- IC50 [1, 3]: 0.01 to 0.1 µM
- IC50 [2]: 10 to 100 nM

SMILES: CC(c1c[nH]nc1Cl)N(C)c1nc(OC[C@@]23CCCN2C[C@H](F)C3)nc(N2CC3(CCc4sc(N)c(C#N)c43)C2)n1 (stereo partly drawn) [Compound 140, 2-amino-1′-[4-[1-(3-chloro-1H-pyrazol-4-yl)ethyl-methyl-amino]-6-[[(2R,8S)-2-fluoro-1,2,3,5,6,7-hexahydropyrrolizin-8-yl]methoxy]-1,3,5-triazin-2-yl]spiro[5,6-dihydrocyclopenta[b]thiophene-4,3′-azetidine]-3-carbonitrile]
- IC50 [1, 3]: 1 to 20 µM
- IC50 [2]: 100 to 1000 nM

SMILES: CCN(c1nc(OC[C@@]23CCCN2C[C@H](F)C3)nc(N2CC3(C2)SCc2sc(N)c(C#N)c23)n1)C1(C(N)=O)CC1 [Compound 234, 1-[[4-(2-amino-3-cyano-spiro[6H-thieno[3,4-b]thiophene-4,3′-azetidine]-1′-yl)-6-[[(2R,8S)-2-fluoro-1,2,3,5,6,7-hexahydropyrrolizin-8-yl]methoxy]-1,3,5-triazin-2-yl]-ethyl-amino]cyclopropanecarboxamide]
- IC50 [1, 3]: 0.1 to 1 µM
- IC50 [2]: 10 to 100 nM

SMILES: N#Cc1c(N)sc2c1C1(CN(c3nc(OC[C@@]45CCCN4C[C@H](F)C5)nc(N4C5CCC4CC(=O)C5)n3)C1)SC2 [Compound 273, 2-amino-1′-[4-[[(2R,8S)-2-fluoro-1,2,3,5,6,7-hexahydropyrrolizin-8-yl]methoxy]-6-(3-oxo-8-azabicyclo[3.2.1]octan-8-yl)-1,3,5-triazin-2-yl]spiro[6H-thieno[3,4-b]thiophene-4,3′-azetidine]-3-carbonitrile]
- IC50 [1, 3]: 0.1 to 1 µM
- IC50 [2]: 10 to 100 nM

SMILES: C[C@@]1(O)CCCN(c2nc(OC[C@@]34CCCN3C[C@H](F)C4)nc(N3CCC4(CCc5sc(N)c(C#N)c54)C3)n2)C1 (stereo partly drawn) [Compound 11, 2-amino-1′-[4-[[(2R,8S)-2-fluoro-1,2,3,5,6,7-hexahydropyrrolizin-8-yl]methoxy]-6-[(3R)-3-hydroxy-3-methyl-1-piperidyl]-1,3,5-triazin-2-yl]spiro[5,6-dihydrocyclopenta[b]thiophene-4,3′-pyrrolidine]-3-carbonitrile]
- IC50 ([1]; Table 2, read-out: NEA-G12D (uM) IC50): 0.1 to 1 µM
- IC50 [1, 3]: 0.1 to 1 µM
- IC50 [2]: 100 to 1000 nM

SMILES: C[C@H](c1cccnc1N)N(C)c1nc(OCC2(N(C)C)CC2)nc(N2CC3(C2)SCc2sc(N)c(C#N)c23)n1 [Compound 181, 2-amino-1′-[4-[[(1R)-1-(2-amino-3-pyridyl)ethyl]-methyl-amino]-6-[[1-(dimethylamino)cyclopropyl]methoxy]-1,3,5-triazin-2-yl]spiro[6H-thieno[2,3-c]thiophene-4,3′-azetidine]-3-carbonitrile]
- IC50 [1, 3]: 0.1 to 1 µM
- IC50 [2]: 10 to 100 nM

SMILES: CCN(c1nc(OCC23CCC(CN(C)C2)N3C)nc(N2CC3(C2)SCc2sc(N)c(C#N)c23)n1)[C@H](C)c1cccnc1N (stereo partly drawn) [Compound 218, 2′-amino-1-(4-(((R)-1-(2-aminopyridin-3-yl)ethyl)(ethyl)amino)-6-((3,8-dimethyl-3,8-diazabicyclo[3.2.1]octan-1-yl)methoxy)-1,3,5-triazin-2-yl)-6′H-spiro[azetidine-3,4′-thieno[3,4-b]thiophene]-3′-carbonitrile]
- IC50 [1, 3]: 0.01 to 0.1 µM
- IC50 [2]: < 10 nM

SMILES: CN(Cc1cc(C(N)=O)nn1C)c1nc(OC[C@@]23CCCN2C[C@H](F)C3)nc(N2CC3(CCc4sc(N)c(C#N)c43)C2)n1 [Compound 135, 5-[[[4-(2-amino-3-cyano-spiro[5,6-dihydrocyclopenta[b]thiophene-4,3′-azetidine]-1′-yl)-6-[[(2R,8S)-2-fluoro-1,2,3,5,6,7-hexahydropyrrolizin-8-yl]methoxy]-1,3,5-triazin-2-yl]-methyl-amino]methyl]-1-methyl-pyrazole-3-carboxamide]
- IC50 [1, 3]: 0.1 to 1 µM
- IC50 [2]: 100 to 1000 nM

SMILES: Cc1ccc(C(C)N(C)c2nc(OC[C@@]34CCCN3C[C@H](F)C4)nc(N3CC4(C3)SCc3sc(N)c(C#N)c34)n2)c(N)n1 (stereo partly drawn) [Compound 230, 2′-amino-1-(4-((1-(2-amino-6-methylpyridin-3-yl)ethyl)(methyl)amino)-6-(((2R,7aS)-2-fluorotetrahydro-1H-pyrrolizin-7a(5H)-yl)methoxy)-1,3,5-triazin-2-yl)-6′H-spiro[azetidine-3,4′-thieno[3,4-b]thiophene]-3′-carbonitrile]
- IC50 [1, 3]: 1 to 20 µM
- IC50 [2]: 1000 to 20000 nM

SMILES: CCN(c1nc(OC[C@@]23CCCN2C[C@H](F)C3)nc(N2CC3(C2)SCc2sc(N)c(C#N)c23)n1)C(C)c1cccnc1N (stereo partly drawn) [Compound 144, 2-amino-1′-[4-[1-(2-amino-3-pyridyl)ethyl-ethyl-amino]-6-[[(2R,8S)-2-fluoro-1,2,3,5,6,7-hexahydropyrrolizin-8-yl]methoxy]-1,3,5-triazin-2-yl]spiro[6H-thieno[3,4-b]thiophene-4,3′-azetidine]-3-carbonitrile]
- IC50 [1, 3]: < 0.01 µM
- IC50 [2]: < 10 nM

SMILES: CN(c1nc(OC[C@@]23CCCN2C[C@H](F)C3)nc(N2CC3(CCc4sc(N)c(C#N)c43)C2)n1)[C@@H]1COC[C@H]1O (racemic) [Compound 90, 2-amino-1′-[4-[[(2R,8S)-2-fluoro-1,2,3,5,6,7-hexahydropyrrolizin-8-yl]methoxy]-6-[[rac-(3R,4S)-4-hydroxytetrahydrofuran-3-yl]-methyl-amino]-1,3,5-triazin-2-yl]spiro[5,6-dihydrocyclopenta[b]thiophene-4,3′-azetidine]-3-carbonitrile]
- IC50 [1, 3]: 0.1 to 1 µM
- IC50 [2]: 100 to 1000 nM

SMILES: N#Cc1c(N)sc2c1C1(CC2)CN(c2nc(OC[C@@]34CCCN3C[C@H](F)C4)nc(N3CCCC(C#N)C(O)C3)n2)C1 (mixture of isomers) [Compound 96, 2-amino-1′-[4-(4-cyano-3-hydroxy-azepan-1-yl)-6-[[rac-(2R,8S)-2-fluoro-1,2,3,5,6,7-hexahydropyrrolizin-8-yl]methoxy]-1,3,5-triazin-2-yl]spiro[5,6-dihydrocyclopenta[b]thiophene-4,3′-azetidine]-3-carbonitrile]
- IC50 [1, 3]: 0.1 to 1 µM
- IC50 [2]: 10 to 100 nM

SMILES: CC(=O)CC(=O)N1[C@@H]2CC[C@H]1CN(c1nc(OC[C@@]34CCCN3C[C@H](F)C4)nc(N3CC4(C3)SCc3sc(N)c(C#N)c34)n1)C2 [Compound 145, 2-amino-1′-[4-[[(2R,8S)-2-fluoro-1,2,3,5,6,7-hexahydropyrrolizin-8-yl]methoxy]-6-[(1R,5S)-8-(3-oxobutanoyl)-3,8-diazabicyclo[3.2.1]octan-3-yl]-1,3,5-triazin-2-yl]spiro[6H-thieno[3,4-b]thiophene-4,3′-azetidine]-3-carbonitrile]
- IC50 [1, 3]: 1 to 20 µM
- IC50 [2]: 100 to 1000 nM
